Measurements reported in patent publication US20210024520A1, “THERAPEUTIC AGENT FOR LCAT DEFICIENCY” (DAIICHI SANKYO COMPANY, LIMITED, priority 2018, published 2021).
Substitutions are numbered along the chain they refer to.

Key:
Assay type in all cases: biochemical
[1] = molecular target: T1, mutant LCAT protein Y156N (Homo sapiens, UniProt P04180, Y180N); experiment: Measurement of LCAT activity using LCAT mutant protein Y156N (FLD), reconstituted HDL with [14C]-cholesterol; settings: for Measured value of LCAT activity Mean ± standard error (n = 6): 37° C. 1 hour, radioactivity of cholesterol ester
T1 construct: made in house; host or cells: HEK293 cells (culture supernatant)
T1 sequence (P04180 25-440 Y180N): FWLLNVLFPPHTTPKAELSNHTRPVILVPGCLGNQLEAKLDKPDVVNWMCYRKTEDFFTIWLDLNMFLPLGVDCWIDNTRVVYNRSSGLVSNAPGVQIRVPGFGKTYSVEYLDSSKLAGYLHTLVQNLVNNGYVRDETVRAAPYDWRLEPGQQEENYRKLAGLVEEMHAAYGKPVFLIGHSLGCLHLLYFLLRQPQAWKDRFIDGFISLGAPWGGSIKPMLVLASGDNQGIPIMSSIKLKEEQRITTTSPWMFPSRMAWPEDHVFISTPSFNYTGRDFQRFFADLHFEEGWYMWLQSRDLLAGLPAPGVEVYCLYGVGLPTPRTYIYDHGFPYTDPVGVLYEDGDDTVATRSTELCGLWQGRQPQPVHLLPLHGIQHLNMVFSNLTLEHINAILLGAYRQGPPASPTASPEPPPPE
Description: (§1) Mutant LCAT proteins, reported on gene mutations among patients with familial LCAT deficiency (FLD) and patients with fish eye disease (FED), were expressed in HEK293 cells, and the mutant LCAT proteins were purified from the culture supernatant and used as enzyme sources. HDL was reconstituted with phosphatidylcholine, [14C]-labelled cholesterol, and apolipoprotein A-I and used as a reactive substrate. The test compound was prepared by being dissolved in dimethyl sulfoxide. To a mixture of 7 μL of the mutant LCAT protein solution (concentration 0.034 μg/μL), 1 μL each of PBS containing 10% bovine serum albumin or mercaptoethanol, and 40 μL of the above-mentioned reconstituted HDL was further added 1 μL of the test compound (final concentration 1 or 10 μM) to prepare 50 μL of a mixture in total. The mixture was incubated at 37° C. for 1 hour and subsequently a mixed solution of hexane and isopropanol (mixing ratio=3:2) was added to stop the reaction. Water was added and stirred, and subsequently the hexane layer was collected and concentrated to dryness. A chloroform solution (concentration 10 mg/mL) was added thereto, spotted on a silica gel thin-layer plate and developed with a mixed solution of hexane, diethyl ether and ethyl acetate (mixing ratio=85:15:2). Radioactivity of a portion corresponding to the cholesterol ester separated on each lane by the development on the silica gel thin-layer plate was measured using an imaging analyzer BAS-2500 (manufactured by FUJIFILM Corporation). Radioactivities with and without the test compound were compared to calculate the ratio of LCAT activity with the addition of the test compound to that without the addition of the test compound for each of the mutant proteins. Additionally, the presence and absence of significant differences in both cases were statistically evaluated using t-test or Dunnett multiple comparison test.

[2] = molecular target: T2, mutant LCAT protein N228K (Homo sapiens, UniProt P04180, N252K); experiment: Measurement of LCAT activity using LCAT mutant protein N228K (FLD), reconstituted HDL with [14C]-cholesterol; settings: for Measured value of LCAT activity Mean ± standard error (n = 6): 37° C. 1 hour, radioactivity of cholesterol ester
T2 construct: made in house; host or cells: HEK293 cells (culture supernatant)
T2 sequence (P04180 25-440 N252K): T1 sequence (P04180 25-440 Y180N) with N156Y, N228K
Description: as §1

mutant LCAT protein P10Q = molecular target: T3, mutant LCAT protein P10Q (Homo sapiens, UniProt P04180, P34Q); experiment: Measurement of LCAT activity using LCAT mutant protein P10Q (FED), reconstituted HDL with [14C]-cholesterol; settings: compound concentration 1 μM
T3 construct: made in house; host or cells: HEK293 cells (culture supernatant)
T3 sequence (P04180 25-440 P34Q): T1 sequence (P04180 25-440 Y180N) with P10Q, N156Y
Description: as §1, with “Water was added and stirred, and subsequently the hexane layer was collected and concentrated to dryness. A chloroform solution (concentration 10 mg/mL) was added thereto, spotted on a silica gel thin-layer plate and developed with a mixed solution of hexane, diethyl ether and ethyl acetate (mixing ratio=85:15:2).” left out, “Radioactivities with and without the test compound were compared to calculate the ratio of LCAT activity with the addition of the test compound to that without the addition of the test compound for each of the mutant proteins.” left out

[3] = molecular target: T4, mutant LCAT protein T1231 (Homo sapiens, UniProt P04180, T147I); experiment: Measurement of LCAT activity using LCAT mutant protein T1231 (FED), reconstituted HDL with [14C]-cholesterol; settings: compound concentration 1 μM
T4 construct: made in house; host or cells: HEK293 cells (culture supernatant)
T4 sequence (P04180 25-440 T147I): T1 sequence (P04180 25-440 Y180N) with T123I, N156Y
Description: as §1, with “Water was added and stirred, and subsequently the hexane layer was collected and concentrated to dryness. A chloroform solution (concentration 10 mg/mL) was added thereto, spotted on a silica gel thin-layer plate and developed with a mixed solution of hexane, diethyl ether and ethyl acetate (mixing ratio=85:15:2).” left out, “Radioactivities with and without the test compound were compared to calculate the ratio of LCAT activity with the addition of the test compound to that without the addition of the test compound for each of the mutant proteins.” left out

[4] = molecular target: T5, mutant LCAT protein N131D (Homo sapiens, UniProt P04180, N155D); experiment: Measurement of LCAT activity using LCAT mutant protein N131D (FED), reconstituted HDL with [14C]-cholesterol; settings: compound concentration 1 μM
T5 construct: made in house; host or cells: HEK293 cells (culture supernatant)
T5 sequence (P04180 25-440 N155D): T1 sequence (P04180 25-440 Y180N) with N131D, N156Y
Description: as §1, with “Water was added and stirred, and subsequently the hexane layer was collected and concentrated to dryness. A chloroform solution (concentration 10 mg/mL) was added thereto, spotted on a silica gel thin-layer plate and developed with a mixed solution of hexane, diethyl ether and ethyl acetate (mixing ratio=85:15:2).” left out, “Radioactivities with and without the test compound were compared to calculate the ratio of LCAT activity with the addition of the test compound to that without the addition of the test compound for each of the mutant proteins.” left out

[5] = 37° C. 1 hour, radioactivity of cholesterol ester

- LCAT activity ratio of case of compound addition to no-addition control ([1]; compound concentration 1 μM): 1.83
- Measured value of LCAT activity Mean ± standard error (n = 6) ([1]; compound concentration 1 μM): 447.36 ± 47.06
- LCAT activity ratio of case of compound addition to no-addition control ([1]; compound concentration 10 μM): 1.82
- Measured value of LCAT activity Mean ± standard error (n = 6) ([1]; compound concentration 10 μM): 443.20 ± 36.83
- LCAT activity ratio of case of compound addition to no-addition control ([2]; compound concentration 1 μM): 2.80
- Measured value of LCAT activity Mean ± standard error (n = 6) ([2]; compound concentration 1 μM): 634.17 ± 66.62
- LCAT activity ratio of case of compound addition to no-addition control ([2]; compound concentration 10 μM): 2.76
- Measured value of LCAT activity Mean ± standard error (n = 6) ([2]; compound concentration 10 μM): 625.22 ± 41.03
- LCAT activity ratio of case of compound addition to no-addition control (mutant LCAT protein P10Q): 3.83
- Measured value of LCAT activity Mean ± standard error (n = 6) (mutant LCAT protein P10Q; [5]): 2908.25 ± 429.42
- LCAT activity ratio of case of compound addition to no-addition control [3]: 3.75
- Measured value of LCAT activity Mean ± standard error (n = 6) [3, 5]: 3263.11 ± 521.27
- LCAT activity ratio of case of compound addition to no-addition control [4]: 3.19
- Measured value of LCAT activity Mean ± standard error (n = 6) [4, 5]: 1308.38 ± 259.22
SMILES: O=C1Nc2[nH]nc(C3CCN(c4cnc(C(F)(F)F)nc4)CC3)c2[C@@H](C(F)(F)F)[C@H]1O [test compound, (+)-Cis-5-hydroxy-4-(trifluoromethyl)-3-{1-[2-(trifluoromethyl)pyrimidin-5-yl]piperidin-4-yl}-1,4,5,7-tetrahydro-6H-pyrazolo[3,4-b]pyridin-6-one]
